Results as given in ChEMBL document CHEMBL5131391, “One-pot three-component synthesis of novel pyrazolo[3,4-b]pyridines as potent antileukemic agents” (Eur J Med Chem, 2022).
Calls of active or inactive are those of the source. No cut-off for these calls is given here.

Assays:
CCRF-CEM = assay: Antiproliferative activity against human CEM cells assessed as reduction in cell viability incubated for 72 hrs by resazurin dye based assay; assay type: functional
MV4-11 = assay: Antiproliferative activity against human MV4-11 cells assessed as reduction in cell viability incubated for 72 hrs by resazurin dye based assay; assay type: functional; details: MV4-11, 72 h
K562 = assay: Antiproliferative activity against human K562 cells assessed as reduction in cell viability incubated for 72 hrs by resazurin dye based assay; assay type: functional; details: K562, 72 h
RS4-11 [1] = assay: Induction of cell cycle arrest in human RS4-11 cells assessed as accumulation of cells in subG1 phase at 1.25 to 10 uM measured after 72 hrs by PI staining based flow cytometry analysis; assay type: functional; details: dose 1.25-10 µM
RS4-11 [2] = assay: Downregulation of HOXA9 protein expression in human RS4-11 cells at 5 to 20 uM measured after 24 hrs by Western blot analysis; assay type: functional, cell-based; details: dose 5-20 µM
RS4-11 [3] = assay: Antiproliferative activity against human RS4-11 cells assessed as reduction in cell viability incubated for 72 hrs by resazurin dye based assay; assay type: functional; details: RS4-11, 72 h
RS4-11 [4] = assay: Induction of cell cycle arrest in human RS4-11 cells assessed as accumulation of cells in G2/M phase at 1.25 to 10 uM measured after 72 hrs by PI staining based flow cytometry analysis; assay type: functional; details: dose 1.25-10 µM
ML-2 = assay: Antiproliferative activity against human ML-2 cells assessed as reduction in cell viability incubated for 72 hrs by resazurin dye based assay; assay type: functional; details: ML-2, 72 h
KOPN-8 = assay: Antiproliferative activity against human KOPN-8 cells assessed as reduction in cell viability incubated for 72 hrs by resazurin dye based assay; assay type: functional; details: KOPN-8, 72 h
RS4-11 [5] = assay: Downregulation of MEIS1 protein expression in human RS4-11 cells at 5 to 20 uM measured after 24 hrs by Western blot analysis; assay type: functional, cell-based; details: dose 5-20 µM
RS4-11 [6] = assay: Induction of cell cycle arrest in human RS4-11 cells assessed as accumulation of cells in G2/M phase measured after 48 hrs by PI staining based flow cytometry analysis; assay type: functional; details: dose 1.25-10 µM, DDE = dose-dependent effect

Compound `N#Cc1c(-c2cccs2)nc2c(c(-c3ccccc3)nn2-c2ccccc2)c1-c1ccc(O)cc1` has an IC50 (CCRF-CEM) of over 25 µM, an IC50 (MV4-11) of 34.2 µM and an IC50 (K562) of 11.6 µM.

For `COc1ccc(-c2nc3c(c(-c4ccccc4)nn3-c3ccccc3)c(-c3ccc(O)cc3)c2C#N)cc1`, the Activity (RS4-11 [1]) was “Active”, the Activity (RS4-11 [2]) was “Active” and the IC50 (CCRF-CEM) was 6.7 µM. For the same compound, the IC50 (MV4-11) was 1.6 µM, the IC50 (RS4-11 [3]) was 1 µM and the Activity (RS4-11 [4]) was “Active”. The IC50 (ML-2) was 0.4 µM, the IC50 (KOPN-8) was 0.2 µM and the Activity (RS4-11 [5]) was “Active”. The IC50 (K562) was 2.1 µM and the Activity (RS4-11 [6]) was “Dde”.
